Values of other authors in patent US10716771B2, “Pharmaceutical composition for preventing or treating immune diseases or inflammatory diseases, containing biguanide derivative compound as active ingredient” (THE CATHOLIC UNIVERSITY OF KOREA INDUSTRY-ACADEMIC …, priority 2013, dated 2020).

System: TNF-α
Settings: stated as known; cited from earlier work

In the case of `CN(C)C(=N)N=C(N)N` [Metformin], the “effect of blocking TNF-α” value is given as “slight effect”.
